Where two headings read alike, the source gives them in different places.
Key:
rat intestinal maltase = test: In vitro α-glucosidase inhibition assay, rat intestinal maltase; type: biochemical; settings: rat small intestinal brush border membrane vesicles; maltose substrate; mean ± SD (n = 3); read-out: IC50 against maltase
Method: (§1) The testing method previously described was modified and used. Thus, rat small intestinal brush border membrane vesicles were first prepared, and its suspension in 0.1 M maleate buffer (pH = 6.0) was used as small intestinal α-glucosidases of maltase and sucrase. A test compound was dissolved in dimethylsulfoxide (DMSO), and the resulting solution was diluted with 0.1 M maleate buffer to prepare the test compound solution (concentration of DMSO: 10%). The substrate solution in maleate buffer ([…], 50 μL), a test compound solution (25 μL), and the enzyme solution (25 μL) were mixed and incubated at 37 °C for 30 min. After incubation, the solution was immediately heated by boiling water for 2 min to stop the reaction, and the solution was mixed with water (150 μL). Glucose concentration was determined by the glucose-oxidase method. […] The IC50 value was determined graphically by a plot of percent inhibition versus log of the test compound.

rat intestinal sucrase = biological target: T1, rat intestinal sucrase (Rattus norvegicus, UniProt P23739); test: In vitro α-glucosidase inhibition assay, rat intestinal sucrase; type: biochemical
T1 construct: rat small intestinal brush border membrane vesicles were first prepared; from tissue; host or cells: rat small intestine, brush border membrane vesicles
T1 sequence (P23739 whole entry): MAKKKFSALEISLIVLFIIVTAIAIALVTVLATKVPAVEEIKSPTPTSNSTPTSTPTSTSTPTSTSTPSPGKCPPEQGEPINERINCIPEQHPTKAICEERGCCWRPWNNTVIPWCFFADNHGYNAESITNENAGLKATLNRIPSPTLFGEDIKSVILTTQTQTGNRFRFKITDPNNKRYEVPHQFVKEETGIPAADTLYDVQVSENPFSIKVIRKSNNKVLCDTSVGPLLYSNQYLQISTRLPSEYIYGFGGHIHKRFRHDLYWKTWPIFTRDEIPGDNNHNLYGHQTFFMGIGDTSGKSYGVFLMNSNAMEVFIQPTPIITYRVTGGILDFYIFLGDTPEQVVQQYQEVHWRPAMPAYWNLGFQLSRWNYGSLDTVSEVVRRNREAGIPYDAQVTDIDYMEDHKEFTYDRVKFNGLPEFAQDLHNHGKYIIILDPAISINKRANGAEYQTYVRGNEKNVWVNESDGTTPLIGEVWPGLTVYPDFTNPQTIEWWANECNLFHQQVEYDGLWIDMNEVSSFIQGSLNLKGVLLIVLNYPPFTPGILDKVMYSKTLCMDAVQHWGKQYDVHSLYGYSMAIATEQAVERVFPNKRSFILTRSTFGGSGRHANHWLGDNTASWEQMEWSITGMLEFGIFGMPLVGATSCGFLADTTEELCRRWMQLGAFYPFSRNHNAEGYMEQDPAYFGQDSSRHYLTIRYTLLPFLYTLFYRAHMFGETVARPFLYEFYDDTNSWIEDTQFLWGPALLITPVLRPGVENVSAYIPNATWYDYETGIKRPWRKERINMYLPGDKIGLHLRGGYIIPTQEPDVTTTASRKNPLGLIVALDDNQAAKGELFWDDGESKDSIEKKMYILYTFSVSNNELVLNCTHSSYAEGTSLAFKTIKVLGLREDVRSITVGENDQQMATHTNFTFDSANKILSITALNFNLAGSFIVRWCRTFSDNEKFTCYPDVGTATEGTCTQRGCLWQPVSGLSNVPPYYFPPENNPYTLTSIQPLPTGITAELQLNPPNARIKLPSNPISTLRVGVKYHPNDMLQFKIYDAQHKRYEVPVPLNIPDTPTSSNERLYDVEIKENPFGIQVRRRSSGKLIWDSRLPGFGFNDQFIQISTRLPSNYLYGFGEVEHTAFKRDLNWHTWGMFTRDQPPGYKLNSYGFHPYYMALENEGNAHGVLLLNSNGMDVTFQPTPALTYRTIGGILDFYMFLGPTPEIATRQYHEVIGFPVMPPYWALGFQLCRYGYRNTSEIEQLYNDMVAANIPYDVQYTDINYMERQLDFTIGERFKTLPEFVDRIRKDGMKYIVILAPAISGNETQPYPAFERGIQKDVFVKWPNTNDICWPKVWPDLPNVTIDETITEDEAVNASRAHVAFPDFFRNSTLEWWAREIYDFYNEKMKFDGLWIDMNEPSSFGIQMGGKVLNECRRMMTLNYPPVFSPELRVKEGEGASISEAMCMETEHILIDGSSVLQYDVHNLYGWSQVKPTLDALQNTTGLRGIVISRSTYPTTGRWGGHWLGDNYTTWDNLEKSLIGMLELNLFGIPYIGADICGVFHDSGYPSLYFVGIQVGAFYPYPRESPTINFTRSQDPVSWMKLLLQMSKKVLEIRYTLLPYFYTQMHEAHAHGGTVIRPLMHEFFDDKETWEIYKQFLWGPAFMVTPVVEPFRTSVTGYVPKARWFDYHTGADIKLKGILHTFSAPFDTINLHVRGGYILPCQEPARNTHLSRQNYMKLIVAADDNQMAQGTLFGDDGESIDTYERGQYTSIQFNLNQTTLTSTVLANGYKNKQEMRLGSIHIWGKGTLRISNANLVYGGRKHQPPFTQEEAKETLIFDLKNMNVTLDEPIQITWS
Method: as §1

[1] = rat small intestinal brush border membrane vesicles, sucrose substrate, mean ± SD (n = 3), read-out: IC50 against sucrase

Row | Structure (SMILES) | IC50 (rat intestinal maltase) | IC50 (rat intestinal sucrase; [1]) | IC50 (rat intestinal sucrase)
1 | OCC1C(O)C(O)C[S+]1CC(O)C1OC(c2ccc(Br)cc2)OCC1O [19m, 1,4-Dideoxy-1,4-[(R)-(5-deoxy-1,3-O-(p-bromobenzylidene)-D-arabinitol-5-yl)episulfoniumylidene]-D-arabinitol chloride] | 4100 ± 80 nM | 3500 ± 60 nM | 
2 | OC[C@@H]1[C@@H](O)[C@H](O)C[Se@+]1C[C@@H](O)[C@H]1OC(c2ccccc2-c2ccccc2)OC[C@H]1O (stereo partly drawn) [20r, (1S,2R,3S,4S)-1-((2S)-2-((4S,5R)-2-([1,1′-biphenyl]-2-yl)-5-hydroxy-1,3-dioxan-4-yl)-2-hydroxyethyl)-3,4-dihydroxy-2-(hydroxymethyl)tetrahydro-1H-selenophen-1-ium chloride] | 2000 ± 520 nM |  | 720 ± 170 nM
3 | OC[C@@H]1[C@@H](O)[C@H](O)C[Se@+]1C[C@@H](O)[C@H]1OC(c2cc(F)ccc2Cl)OC[C@H]1O (stereo partly drawn) [20e, (1S,2R,3S,4S)-1-((2S)-2-((4S,5R)-2-(2-Chloro-5-fluorophenyl)-5-hydroxy-1,3-dioxan-4-yl)-2-hydroxyethyl)-3,4-dihydroxy-2-(hydroxymethyl)tetrahydro-1H-selenophen-1-ium chloride] | 450 ± 80 nM |  | 410 ± 110 nM
4 | OCC1C(O)C(O)C[S+]1CC(O)C1OC(c2cc(Cl)cc(Cl)c2)OCC1O [19g, 1,4-Dideoxy-1,4-[(R)-(5-deoxy-1,3-O-(3,5-dichlorobenzylidene)-D-arabinitol-5-yl)episulfoniumylidene]-D-arabinitol chloride] | 4900 ± 250 nM | 5500 ± 620 nM | 
5 | OCC1C(O)C(O)C[S+]1CC(O)C1OC(c2cc(Cl)ccc2Cl)OCC1O [19c, 1,4-Dideoxy-1,4-[(R)-(5-deoxy-1,3-O-(2,5-dichlorobenzylidene)-D-arabinitol-5-yl)episulfoniumylidene]-D-arabinitol chloride] | 550 ± 50 nM | 800 ± 120 nM | 
6 | OCC1C(O)C(O)C[S+]1CC(O)C1OC(c2cccc(F)c2Cl)OCC1O [19d, 1,4-Dideoxy-1,4-[(R)-(5-deoxy-1,3-O-(2-chloro-3-fluorobenzylidene)-D-arabinitol-5-yl)episulfoniumylidene]-D-arabinitol chloride] | 1000 ± 50 nM | 700 ± 130 nM | 
7 | O=[N+]([O-])c1ccc(F)cc1C1OCC(O)C(C(O)C[S+]2CC(O)C(O)C2CO)O1 [19j, 1,4-Dideoxy-1,4-[(R)-(5-deoxy-1,3-O-(5-fluoro-2-nitrobenzylidene)-D-arabinitol-5-yl)episulfoniumylidene]-D-arabinitol chloride] | 750 ± 80 nM | 1500 ± 210 nM | 
8 | OC[C@@H]1[C@@H](O)[C@H](O)C[Se@+]1C[C@@H](O)[C@H]1OC(c2cc(Cl)cc(Cl)c2)OC[C@H]1O (stereo partly drawn) [20g, (1S,2R,3S,4S)-1-((2S)-2-((4S,5R)-2-(3,5-Dichlorophenyl)-5-hydroxy-1,3–dioxan-4-yl)-2-hydroxyethyl)-3,4-dihydroxy-2-(hydroxymethyl)tetrahydro-1H-selenophen-1-ium Chloride] | 710 ± 210 nM |  | 220 ± 50 nM
9 | O=[N+]([O-])c1ccc(F)cc1C1OC[C@@H](O)[C@@H]([C@H](O)C[Se@@+]2C[C@@H](O)[C@H](O)[C@H]2CO)O1 (stereo partly drawn) [20j, (1S,2R,3S,4S)-1-((2S)-2-((4S,5R)-2-(5-Fluoro-2-nitrophenyl)-5-hydroxy-1,3-dioxan-4-yl)-2-hydroxyethyl)-3,4-dihydroxy-2-(hydroxymethyl)tetrahydro-1H-selenophen-1-ium chloride] | 330 ± 80 nM |  | 90 ± 30 nM
10 | N#Cc1ccccc1C1OCC(O)C(C(O)C[S+]2CC(O)C(O)C2CO)O1 [19p, 1,4-Dideoxy-1,4-[(R)-(5-deoxy-1,3-O-(o-cyanobenzyliden)-D-arabinitol-5-yl)episulfoniumylidene]-D-arabinitol chloride] | 880 ± 40 nM | 900 ± 50 nM | 
11 | OCC1C(O)C(O)C[S+]1CC(O)C1OC(c2ccccc2-c2ccccc2)OCC1O [19r, 1,4-Dideoxy-1,4-[(R)-(5-deoxy-1,3-O-(2-phenylbenzylidene)-D-arabinitol-5-yl)episulfoniumylidene]-D-arabinitol chloride] | 10500 ± 1100 nM | 3300 ± 220 nM | 
12 | OCC1C(O)C(O)C[S+]1CC(O)C1OC(c2ccc(Cl)cc2Cl)OCC1O [19b, 1,4-Dideoxy-1,4-[(R)-(5-deoxy-1,3-O-(2,4-dichlorobenzylidene)-D-arabinitol-5-yl)episulfoniumylidene]-D-arabinitol chloride] | 2000 ± 80 nM | 1200 ± 230 nM | 
13 | OC[C@@H]1[C@@H](O)[C@H](O)C[Se@+]1C[C@@H](O)[C@H]1OC(c2ccc(Br)cc2)OC[C@H]1O (stereo partly drawn) [20m, (1S,2R,3S,4S)-1-((2S)-2-((4S,5R)-2-(4-Bromophenyl)-5-hydroxy-1,3-dioxan-4-yl)-2-hydroxyethyl)-3,4-dihydroxy-2-(hydroxymethyl)tetrahydro-1H-selenophen-1-ium chloride] | 70 ± 30 nM |  | 200 ± 50 nM
14 | OC[C@@H]1[C@@H](O)[C@H](O)C[Se@+]1C[C@@H](O)[C@H]1OC(c2cc(F)cc(Cl)c2)OC[C@H]1O (stereo partly drawn) [20h, (1S,2R,3S,4S)-1-((2S)-2-((4S,5R)-2-(3-Chloro-5-fluorophenyl)-5-hydroxy-1,3-dioxan-4-yl)-2-hydroxyethyl)-3,4-dihydroxy-2-(hydroxymethyl)tetrahydro-1H-selenophen-1-ium chloride] | 3670 ± 890 nM |  | 1960 ± 250 nM
15 | OCC1C(O)C(O)C[S+]1CC(O)C1OC(c2ccc(Cl)c(Cl)c2)OCC1O [19f, 1,4-Dideoxy-1,4-[(R)-(5-deoxy-1,3-O-(3,4-dichlorobenzylidene)-D-arabinitol-5-yl)episulfoniumylidene]-D-arabinitol chloride] | 5000 ± 390 nM | 4600 ± 90 nM | 
16 | OC[C@@H]1[C@@H](O)[C@H](O)C[Se@+]1C[C@@H](O)[C@H]1OC(c2cccc(F)c2Cl)OC[C@H]1O (stereo partly drawn) [20d, (1S,2R,3S,4S)-1-((2S)-2-((4S,5R)-2-(2-Chloro-3-fluorophenyl)-5-hydroxy-1,3-dioxan-4-yl)-2-hydroxyethyl)-3,4-dihydroxy-2-(hydroxymethyl)tetrahydro-1H-selenophen-1-ium chloride] | 620 ± 70 nM |  | 870 ± 230 nM
17 | OCC1C(O)C(O)C[S+]1CC(O)C1OC(c2cc(F)ccc2Cl)OCC1O [19e, 1,4-Dideoxy-1,4-[(R)-(5-deoxy-1,3-O-(2-chloro-5-fluorobenzylidene)-D-arabinitol-5-yl)episulfoniumylidene]-D-arabinitol chloride] |  | 6600 ± 450 nM | 
18 | OC[C@@H]1[C@@H](O)[C@H](O)C[Se@@+]1C[C@@H](O)[C@H]1OC(c2cccc3ccccc23)OC[C@H]1O (stereo partly drawn) [20q, (1S,2R,3S,4S)-3,4-dihydroxy-1-((2S)-2-hydroxy-2-((4S,5R)-5-hydroxy-2-(naphthalen-1-yl)-1,3-dioxan-4-yl)ethyl)-2-(hydroxymethyl)tetrahydro-1H-selenophen-1-ium chloride] | 920 ± 230 nM |  | 680 ± 140 nM
19 | OC[C@@H]1[C@@H](O)[C@H](O)C[Se@@+]1C[C@@H](O)[C@H]1OC(c2ccccc2I)OC[C@H]1O (stereo partly drawn) [20o, (1S,2R,3S,4S)-3,4-Dihydroxy-1-((2S)-2-hydroxy-2-((4S,5R)-5-hydroxy-2-(2-iodophenyl)-1,3-dioxan-4-yl)ethyl)-2-(hydroxymethyl)tetrahydro-1H-selenophen-1-ium chloride] | 360 ± 70 nM |  | 300 ± 110 nM
20 | OCC1C(O)C(O)C[S+]1CC(O)C1OC(c2cccc(Br)c2)OCC1O [19l, 1,4-Dideoxy-1,4-[(R)-(5-deoxy-1,3-O-(m-bromobenzylidene)-D-arabinitol-5-yl)episulfoniumylidene]-D-arabinitol chloride] | 9700 ± 740 nM | 7900 ± 1600 nM | 
21 | OCC1C(O)C(O)C[S+]1CC(O)C1OC(c2cccc3ccccc23)OCC1O [19q, 1,4-Dideoxy-1,4-[(R)-(5-deoxy-1,3-O-(1-naphthalene)-D-arabinitol-5-yl)episulfoniumylidene]-D-arabinitol chloride] | 4600 ± 370 nM | 5800 ± 410 nM | 
22 | OCC1C(O)C(O)C[S+]1CC(O)C1OC(c2cc(F)cc(Cl)c2)OCC1O [19h, 1,4-Dideoxy-1,4-[(R)-(5-deoxy-1,3-O-(3-chloro-5-fluorobenzylidene)-D-arabinitol5-yl)episulfoniumylidene]-D-arabinitol chloride] | 850 ± 280 nM | 1400 ± 330 nM | 
23 | N#Cc1ccccc1C1OC[C@@H](O)[C@@H]([C@H](O)C[Se@@+]2C[C@@H](O)[C@H](O)[C@H]2CO)O1 (stereo partly drawn) [20p, (1S,2R,3S,4S)-1-((2S)-2-((4S,5R)-2-(2-Cyanophenyl)-5-hydroxy-1,3-dioxan-4-yl)-2-hydroxyethyl)-3,4-dihydroxy-2-(hydroxymethyl)tetrahydro-1H-selenophen-1-ium chloride] | 820 ± 210 nM |  | 370 ± 50 nM
24 | OC[C@@H]1[C@@H](O)[C@H](O)C[Se@+]1C[C@@H](O)[C@H]1OC(c2ccc(Cl)cc2Cl)OC[C@H]1O (stereo partly drawn) [20b, (1S,2R,3S,4S)-1-((2S)-2-((4S,5R)-2-(2,4-Dichlorophenyl)-5-hydroxy-1,3-dioxan-4-yl)-2-hydroxyethyl)-3,4-dihydroxy-2-(hydroxymethyl)tetrahydro-1H-selenophen-1-ium chloride] | 260 ± 80 nM |  | 220 ± 60 nM
25 | OC[C@@H]1[C@@H](O)[C@H](O)C[Se@+]1C[C@@H](O)[C@H]1OC(c2cccc(Br)c2)OC[C@H]1O (stereo partly drawn) [20l, (1S,2R,3S,4S)-1-((2S)-2-((4S,5R)-2-(3-Bromophenyl)-5-hydroxy-1,3-dioxan-4-yl)-2-hydroxyethyl)-3,4-dihydroxy-2-(hydroxymethyl)tetrahydro-1H-selenophen-1-ium chloride] | 690 ± 50 nM |  | 210 ± 20 nM
